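Cultured in 96-well plates, cells were exposed to test compound for 48 hours across five concentrations. GI50 = concentration required for 50% inhibition of growth.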 Active and inactive are the calls of the source. Cut-off read from the data, not from the text of the source: active = GI50 up to about 1.1 µM and inactive = higher. Some results are limits rather than exact numbers.

Holding throughout (assay): inhibition of tumour cell growth, NCI panel, 48 h
The test system of assay [1] is A498.
Assay [2] relates to A549.
The subject of assay [3] is COLO 205.
In assay [4] the test system is HCC 2998.
Assay [5] deals with HL-60.
Assay [6] has as its system HOP-92.
The test system of assay [7] is KM12.
Assay [8] relates to NCI-H226.
Assay [9] has as its system NCI-H23.
The test system of assay [10] is OVCAR-8.
Assay [11] has as its system SF-268.
Assay [12] deals with SF-539.
Assay [13] has as its system SK-MEL-2.
The test system of assay [14] is SW-620.
In assay [15] the test system is UACC-62.
For assay [16], the system named is UO-31.
The subject of assay [17] is PC-3.
The test system of assay [18] is MCF7.
The test system of assay [19] is NCI/ADR-RES.

With `COC(=O)[C@@]12C(=O)CCC(=O)C1C1C(=CC2C)O[C@@H]2OC3(CCCCC3)O[C@H]12` (stereo partly drawn), the GI50 in assay [1] was > 100 µM (inactive); in assay [2] it was > 100 µM (inactive); in assay [3] it was > 68.1 µM (inactive); in [4], > 100 µM (inactive); in assay [5], 25.8 µM (inactive); in assay [6], 40.5 µM (inactive). Moreover, the GI50 in assay [7] is 64.1 µM (inactive); in [8], > 100 µM (inactive); in assay [9] it was > 72.4 µM (inactive); in [10], 42.2 µM (inactive); in [11], > 91.2 µM (inactive); in assay [12], > 100 µM (inactive). The GI50 was > 100 µM (inactive) in [13], 48.1 µM (inactive) in assay [14], > 88.7 µM (inactive) in assay [15] and > 100 µM (inactive) in assay [16].
`O=C1c2ccccc2C(=O)N1/N=C\c1ccc(Br)cc1`: the GI50 in assay [1] is > 10 µM (inactive); in assay [2], > 10 µM (inactive); in assay [3] it was > 100 µM (inactive); in assay [4] it was > 10 µM (inactive); in assay [5], > 10 µM (inactive); in [6], > 10 µM (inactive). Also, the GI50 in [7], in assay [8], in [9], in assay [10], in assay [11] and in assay [12] was > 10 µM (inactive) throughout. Moreover, the GI50 in assay [13], in assay [14], in assay [15] and in [16] was > 10 µM (inactive) in each case.
As to `C=C(CC(NC(=O)c1ccc(C(CC)Cc2cnc3nc(N)nc(N)c3n2)cc1)C(=O)O)C(=O)O` (stereo not drawn), the GI50 is 0.632 µM (active) in assay [1]; 0.00567 µM (active) in [2]; 0.0796 µM (active) in assay [3]; 0.239 µM (active) in assay [4]; 0.00376 µM (active) in [5]; 0.0875 µM (active) in assay [8]. Further, the GI50 was 0.244 µM (active) in [9]; 0.0217 µM (active) in [10]; 0.0527 µM (active) in assay [17]; 0.0731 µM (active) in assay [11]; 0.00319 µM (active) in assay [12]; 0.933 µM (active) in assay [13]. For the same molecule, the GI50 in assay [14] is 0.0673 µM (active); in [15], 0.163 µM (active); in assay [16] it was 0.114 µM (active).
For the molecule `O=C(COc1ccc(OCC(=O)N2C(=O)CN(c3ccc(Cl)cc3)C2=S)cc1)N1C(=O)CN(c2ccc(Cl)cc2)C1=S`, the GI50 is 22.1 µM (inactive) in assay [1]; 21.5 µM (inactive) in assay [2]; 25.6 µM (inactive) in assay [3]; 21.7 µM (inactive) in assay [4]; 21.8 µM (inactive) in assay [6]; 18.9 µM (inactive) in [7]. The GI50 in assay [18] was 34 µM (inactive); in assay [8] it was 23.9 µM (inactive); in assay [9], 32.5 µM (inactive); in assay [19], 28.7 µM (inactive); in [17], 23.9 µM (inactive); in [11] it was 27.2 µM (inactive). Also, the GI50 in assay [13] was 13.3 µM (inactive); in assay [14], 31.3 µM (inactive); in [15], 16.5 µM (inactive); in assay [16] it was 29 µM (inactive).
In the case of `CCOC(=O)C12C(C(=O)OC)=C(C)N(NC(=O)Nc3ccccc3)C1(N)N(NC(=O)Nc1ccccc1)C(C)=C2C(=O)OC` (stereo not drawn), the GI50 in assay [1] was 30.1 µM (inactive); in assay [2], 44.6 µM (inactive); in assay [3], > 41.1 µM (inactive); in [4], 25.2 µM (inactive); in assay [5] it was 23.6 µM (inactive); in assay [6], 24.9 µM (inactive). For the same molecule, the GI50 is 19.2 µM (inactive) in assay [7]; > 100 µM (inactive) in assay [8]; 37.4 µM (inactive) in [9]; 27.7 µM (inactive) in assay [10]; 31.3 µM (inactive) in assay [11]; 18.9 µM (inactive) in assay [12]. Further, the GI50 in [13] was 19.9 µM (inactive); in assay [14], 40.6 µM (inactive); in [15], 18 µM (inactive); in [16], 40 µM (inactive).
For the molecule `CC(C)(CO)NC(=O)c1cccs1`, the GI50 in [2], in assay [3], in [4], in assay [5], in [6] and in assay [7] was > 100 µM (inactive) throughout. In addition, the GI50 in assay [18], in [9], in assay [19], in assay [10], in assay [17] and in [11] was > 100 µM (inactive) throughout. Moreover, the GI50 in assay [13], in assay [14], in assay [15] and in [16] was > 100 µM (inactive) throughout.
Turning to `Cc1ccc(N2C(=O)CS/C2=C(\C#N)c2nc3ccccc3[nH]2)cc1`, the GI50 in assay [1], in assay [2], in assay [3], in assay [4], in assay [5] and in assay [6] was > 100 µM (inactive) each time. The GI50 in assay [7], in assay [8], in assay [9], in [10], in assay [11] and in assay [12] was > 100 µM (inactive) in each case. For the same molecule, the GI50 is > 100 µM (inactive) in assay [13], > 100 µM (inactive) in [14], 16.1 µM (inactive) in [15] and > 100 µM (inactive) in assay [16].
With `CCCOC(=O)C1CCC(=O)N1C(=O)C(Cl)Cl` (stereo not drawn), the GI50 in assay [1], in [2], in assay [3], in assay [4], in assay [5] and in assay [6] was > 100 µM (inactive) each time. Besides, the GI50 in assay [7], in [8], in assay [9], in assay [10], in [11] and in assay [13] was > 100 µM (inactive) each time. Moreover, the GI50 in assay [14], in [15] and in assay [16] was > 100 µM (inactive) each time.
Turning to `CC1CCC(C(=O)O)(C(Br)C(=O)O)CC1` (stereo not drawn), the GI50 in assay [2], in [5], in [6], in assay [7], in assay [8] and in [9] was > 100 µM (inactive) throughout. Besides, the GI50 in assay [19], in assay [10], in assay [17], in assay [13], in assay [14] and in assay [15] was > 100 µM (inactive) in each case. Further, the GI50 in assay [16] is > 100 µM (inactive).
Consider `O=C1OC(c2ccccc2)=N/C1=C\c1cccc2ccccc12`, for which the GI50 was > 100 µM (inactive) in assay [1]; > 100 µM (inactive) in assay [2]; > 100 µM (inactive) in assay [3]; > 100 µM (inactive) in [4]; > 100 µM (inactive) in assay [5]; 52.4 µM (inactive) in assay [6]. The GI50 in assay [7], in assay [8], in assay [9], in assay [10], in [11] and in assay [12] was > 100 µM (inactive) in each case. For the same molecule, the GI50 in assay [13], in [14], in assay [15] and in assay [16] was > 100 µM (inactive) throughout.
As for `Cc1ccccc1/C=N/C12CC3CC(CC(C3)C1)C2`, the GI50 in assay [1], in assay [2], in assay [3], in [4], in assay [5] and in [6] was > 100 µM (inactive) in each case. Further, the GI50 in assay [7], in assay [8], in assay [9], in assay [10], in [11] and in assay [12] was > 100 µM (inactive) throughout. Besides, the GI50 in [13], in assay [14], in assay [15] and in assay [16] was > 100 µM (inactive) in each case.
Consider `CC(C)N(C(=O)C12C3C4C5(C#N)C3C1(I)C5C42I)C(C)C` (stereo not drawn), for which the GI50 is > 100 µM (inactive) in [1]; > 100 µM (inactive) in [2]; > 42 µM (inactive) in [3]; > 100 µM (inactive) in assay [4]; > 47.4 µM (inactive) in assay [5]; > 100 µM (inactive) in [6]. In addition, the GI50 in assay [7] is > 100 µM (inactive); in assay [8] it was > 100 µM (inactive); in assay [9], > 100 µM (inactive); in [10] it was > 100 µM (inactive); in assay [11], > 100 µM (inactive); in assay [12], > 60.8 µM (inactive). Further, the GI50 is > 100 µM (inactive) in [13], > 27 µM (inactive) in assay [14], > 100 µM (inactive) in assay [15] and > 100 µM (inactive) in [16].
On to `N#CN=C(NCc1ccccc1)NCc1ccccc1`, for which the GI50 in assay [1] was > 100 µM (inactive); in assay [2], > 83 µM (inactive); in [3] it was > 42.9 µM (inactive); in assay [4], > 100 µM (inactive); in [5], > 100 µM (inactive); in [6] it was > 100 µM (inactive). Moreover, the GI50 in [7] was > 100 µM (inactive); in assay [8], > 100 µM (inactive); in assay [9], > 100 µM (inactive); in assay [10], > 100 µM (inactive); in [11], 18.2 µM (inactive); in assay [12] it was > 100 µM (inactive). Also, the GI50 in [13] is > 100 µM (inactive); in assay [14] it was > 44 µM (inactive); in [15] it was > 100 µM (inactive); in [16], > 100 µM (inactive).

The values above are taken from ChEMBL document CHEMBL1201862, “PubChem BioAssay data set” (2004).
